According to patent publication US8129527B2, “Analogs of dehydrophenylahistins and their therapeutic use” (Nereus Pharmacuticals, Inc., priority 2006, dated 2012):
Where two headings read alike, the source gives them in different places.

What was measured:
[1] = target: panel of 60 different kinases; test: Broad kinase screen, primary screen; assay type: biochemical; conditions: 10 μM compound, ATP 10 μM, 60 kinases
[2] = test system: bovine brain microtubule protein; test: Tubulin polymerization assay, turbidity (Example 21); assay type: biochemical; conditions: 5 μM in 1% DMSO
Description: Polymerization of bovine brain microtubule protein (Cytoskeleton, Inc., Denver, Colo.) was monitored by an increase in turbidity at 37° C. in microtubule buffer (80 mM PIPES, pH 6.8, 1 mM MgCl2, 1 mM EGTA, 1 mM GTP, 10% glycerol). […] Turbidity was measured as an increase in optical density at 340 nm with a thermo-controlled spectrophotometer (model 680XR microplate Reader™, Bio-Rad Laboratories).

[3] = test system: MES-SA/Dx5 (Taxol Resistant) human uterine sarcoma; test: Drug resistant cell line pair, cytotoxicity (Example 10B); assay type: cell-based; conditions: Homo sapiens, MES-SA/Dx5, MES-SA/DX5 Resistant, CsA Pretreat; Studies II-III in separate lines
From the text: (§1) 1) Human Uterine Sarcoma Tumor Cell Line Pair: MES-SA (Taxol Sensitive) and MES-SA/Dx5 (Taxol Resistant).

[4] = test system: MES-SA (Taxol Sensitive) human uterine sarcoma; test: as above; assay type: cell-based; conditions: Homo sapiens, MES-SA, CsA Pretreat, Studies II-III in separate lines
From the text: as §1

[5] = test system: human prostate tumor cells; test: Induction of apoptosis, morphological changes; assay type: cell-based
From the text: Apoptosis and its dysregulation play an important role in oncology; the selective induction of the programmed cell death cycle in tumor cells is the goal of many chemotherapeutic drug discovery programs.
The characteristic signs of apoptotic cell death include cell membrane blebbing, disruption of nuclei, cell shrinkage and condensation and finally cell death, very distinctive from necrotic cell death. […] A similar finding was also clear in the treatment of HuVEC cells with KPU-2.

[6] = test system: Jurkat cells (human T cell leukemia line); test: DNA fragmentation (DNA laddering); assay type: cell-based
From the text: A late stage characteristic of apoptosis is internucleosomal DNA cleavage that results in a distinctive ladder pattern that can be visualized by gel electrophoresis.

[7] = test system: HL-60/MX-2 (Mitoxantrone-Resistant); test: Drug resistant cell line pair, cytotoxicity (Example 10B); assay type: cell-based, human; conditions: Homo sapiens, HL60/MX2; HL-60 Resistant (HL-60/MX-2)
From the text: (§2) 2) Human Acute Promyelocytic Leukemia Cell Line Pair: HL-60 (Mitoxantrone-Sensitive) and HL-60/MX-2 (Mitoxantrone-Resistant)

Lyn (mouse) = Lyn (mouse) (Mus musculus, UniProt P25911); conditions: ATP 10 μM
HT-29 human colon cells = test: Tumor cytotoxicity assay, resazurin fluorescence, 48 h (Example 6); assay type: cell-based; conditions: Homo sapiens
[8] = test system: A549 human non small cell lung tumor; test: A549 Human Lung Tumor Xenograft Model; assay type: in vivo, nude mice; conditions: KPU-2 7.5 mg/kg ip qdx5 with taxotere
Description: Animals used were (exceptions are indicated for individual studies): female nude mice (nu/nu) between 5 and 6 weeks of age (˜20 g, Harlan); group size was 9-10 mice per group unless otherwise indicated.
Selected novel compounds were administered as monotherapy via the intraperitoneal (i.p.) route at the doses indicated for the individual study; for the combination studies the selected reference chemotherapy agents were injected 15-30 min prior to the compound.
Saline dilutions are used to achieve the injection concentrations used for the reference compounds.
Animals were implanted s.c. by trocar with fragments of A549 tumors harvested from s.c. growing tumors in nude mice hosts. When the tumor size reached 5 mm×5 mm (about 10-17 days) the animals were matched into treatment and control groups.

[9] = test system: B16-F10 murine melanoma cells; test: B16-F10 Metastatic Murine Melanoma Model; assay type: in vivo, B6D2F1 mice; conditions: monotherapy, lung surface metastases day 16
Description: The animals used were: female nude mice (nu/ni) (MDA-231 study) or B6D2F1 (B16-F10 studies) mice between 5 and 6 weeks of age (˜20 g, Harlan); group size was 10 mice per group unless otherwise indicated.
The cell lines used were: MDA-MB-231 human breast tumor and B16-F10 murine melanoma cells.
NPI compounds were administered as monotherapy via the intraperitoneal route at the doses indicated for the individual study; for the combination studies the selected reference chemotherapy agents were injected 15-30 min prior to the NPI compound.
Mice received B16-F10 cells (prepared from an in vitro cell culture of B16-F10 cells) by the iv route on Day 0. On Day 1 mice were randomized into treatment and control groups and treatment commenced. Mice were weighed twice weekly, starting on Day 1. All mice are sacrificed on Day 16, the lungs removed, weighed and the surface colonies counted. Results are expressed as mean colonies of treated mice/mean colonies of control mice (T/C)×100%). The metastasis growth inhibition (MGI) is this number subtracted from 100%. Paclitaxel was the standard chemotherapy agent used in this study.
In this model unless otherwise noted for the individual study, the test compounds were administered via the intraperitoneal route on Days 1-5 (qdx5); paclitaxel was administered intravenously on Days 1-5(qdx5).

[10] = test system: HL-60 (Mitoxantrone-Sensitive) human acute promyelocytic leukemia; test: Drug resistant cell line pair, cytotoxicity (Example 10B); assay type: cell-based; conditions: HL-60 Sensitive
From the text: as §2

HuVEC = test: Action on microtubule function, α-tubulin staining; conditions: 2 μM, thirty minutes exposure
CDK1/Cyclin B (human) = CDK1/Cyclin B (human) (Homo sapiens, UniProt P06493); test: biochemical
[11] = test system: DU-145 human prostate tumor; test: DU-145 Human Prostate Tumor Xenograft Model; assay type: in vivo, nude mice; conditions: KPU-2 plus taxotere, treatment Days 20-27
Description: When the tumors reached 5 mm×5 mm (at about 13-17 days) the animals were matched into treatment and control groups.
In this model unless otherwise noted for the individual study, test compounds were administered via the intraperitoneal route on Days 1, 3, 5, 8 and 11 (q3dx5); taxotere was administered intravenously on Days 1, 3 and 5 (q2dx3).

Candida albicans = test: Antifungal susceptibility testing, broth dilution (MIC/MFC); assay type: cell-based
Procedure, shortened: (§3)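 Tested against two isolates per species (one for C. glabrata). After MIC, fungicidal concentration determined by plating 0.1 μl from MIC and each higher concentration.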

Candida glabrata = test: as above; assay type: cell-based; conditions: Nakaseomyces glabratus
Procedure, shortened: as §3

Trichophyton rubrum = test: as above; assay type: cell-based; conditions: Trichophyton species
Procedure, shortened: as §3

Aspergillus fumigatus = test: as above; assay type: cell-based
Procedure, shortened: as §3

Sequence of CDK1/Cyclin B (human) (P06493 whole entry): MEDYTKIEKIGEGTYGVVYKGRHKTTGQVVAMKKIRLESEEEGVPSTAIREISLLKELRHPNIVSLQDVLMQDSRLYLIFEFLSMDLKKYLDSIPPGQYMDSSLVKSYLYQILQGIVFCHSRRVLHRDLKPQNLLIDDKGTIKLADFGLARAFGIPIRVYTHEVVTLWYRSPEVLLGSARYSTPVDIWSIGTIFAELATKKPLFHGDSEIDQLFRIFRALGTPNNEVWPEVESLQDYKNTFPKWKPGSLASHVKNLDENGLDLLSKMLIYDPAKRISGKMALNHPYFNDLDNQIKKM
Sequence of CDK1/Cyclin B (human) (P14635 whole entry partner): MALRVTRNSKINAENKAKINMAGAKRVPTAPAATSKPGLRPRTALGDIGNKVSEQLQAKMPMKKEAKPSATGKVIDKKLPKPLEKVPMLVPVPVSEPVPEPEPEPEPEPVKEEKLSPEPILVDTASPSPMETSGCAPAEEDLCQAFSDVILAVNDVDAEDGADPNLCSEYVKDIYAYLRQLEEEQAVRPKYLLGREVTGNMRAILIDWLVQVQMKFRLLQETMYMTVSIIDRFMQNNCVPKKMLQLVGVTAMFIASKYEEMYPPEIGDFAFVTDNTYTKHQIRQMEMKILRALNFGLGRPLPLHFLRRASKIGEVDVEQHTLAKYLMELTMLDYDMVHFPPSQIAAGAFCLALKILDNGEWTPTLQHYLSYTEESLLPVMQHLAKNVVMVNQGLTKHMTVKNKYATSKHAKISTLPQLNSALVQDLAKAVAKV
Sequence of Lyn (mouse) (P25911 whole entry): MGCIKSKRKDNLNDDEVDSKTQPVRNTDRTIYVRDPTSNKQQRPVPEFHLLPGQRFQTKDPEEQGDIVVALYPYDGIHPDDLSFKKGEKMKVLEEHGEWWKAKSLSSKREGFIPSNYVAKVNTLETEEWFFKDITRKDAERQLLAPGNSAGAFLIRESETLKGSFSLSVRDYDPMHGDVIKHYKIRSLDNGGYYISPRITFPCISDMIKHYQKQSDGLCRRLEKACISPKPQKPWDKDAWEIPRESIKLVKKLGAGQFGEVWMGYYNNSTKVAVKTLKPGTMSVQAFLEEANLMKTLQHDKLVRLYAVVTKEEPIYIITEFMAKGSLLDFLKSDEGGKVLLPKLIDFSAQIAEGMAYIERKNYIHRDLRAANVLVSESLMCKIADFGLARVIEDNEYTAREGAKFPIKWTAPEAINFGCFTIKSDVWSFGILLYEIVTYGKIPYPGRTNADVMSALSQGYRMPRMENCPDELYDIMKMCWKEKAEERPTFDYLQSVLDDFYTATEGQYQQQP

## CC(C)(C)c1[nH]cnc1/C=c1\[nH]c(=O)/c(=C/c2ccccc2)[nH]c1=O [KPU-2, tBu-dehydro-PLH]
[1]
  kinases inhibited in the primary screen: Four kinases were inhibited by greater than 50%
[2]
  tubulin polymerization: inhibit tubulin polymerization
[3]
  IC50: 0.0378 µM
[4]
  IC50: 0.0274 µM
[5]
  morphological changes of apoptosis: induced the typical morphological changes associated with early stages of apoptosis
[6]
  concentration inducing DNA laddering: 1 nM
[7]
  IC50: 0.00817 µM
Lyn (mouse)
  IC50: 11.1 µM
HT-29 human colon cells; HT-29, Table 6, proliferation of HT-29 cells
  EC50: 13 nM
HT-29 human colon cells; HT-29, Table 9, summary of modification at the o-position, HT-29
  EC50: 48 nM
HT-29 human colon cells; HT-29, Table 10, summary of modification at the m-position, HT-29
  EC50: 48 nM
HT-29 human colon cells; HT-29, read-out: EC50 (nM) HT-29, Table 2
  EC50: 13 nM
HT-29 human colon cells; HT-29, read-out: EC50 (nM) HT-29, Table 3
  EC50: 13 nM
HT-29 human colon cells; HT-29, Table 5, synthetic potent dehydroPLH derivatives
  EC50: 13 nM
[8]
  TGI of the cotherapy group: 74.4%
[9]
  MGI (metastasis growth inhibition): 41.6%
[10]
  IC50: 0.0064 µM
HuVEC
  microtubule depolymerization in HuVEC cells: induced microtubule depolymerization
CDK1/Cyclin B (human)
  IC50: 10.1 µM
[11]
  apparent TGI: > 58%
Candida albicans; C. albicans 10231
  MIC: >32 mg/L
Candida albicans; Candida albicans
  MIC: > 32 mg/L
Candida glabrata
  MIC: > 32 mg/L
Trichophyton rubrum
  antifungal potency compared with griseofulvin: equivalent in potency or in some cases more potent than griseofulvin
Aspergillus fumigatus; A. fumigatus isolate #2
  MIC: >16 mg/L
Aspergillus fumigatus; Aspergillus fumigatus
  MIC: > 16 mg/L
